A short description of the series: wn = mass fraction of the nth substance listed. The following applies: 298 K, 100 kPa, Liquid, Alternating current cell with electrodes.

The structures appear in SMILES notation. ± gives the expanded uncertainty stated by the source.

On to `OCCNCCO` [diethanolamine] + O, for which the electrical conductivity (w1 = 0.0105) stood at 0.0194 ± 0.00039 S/m; the electrical conductivity (w1 = 0.021) stood at 0.0262 ± 0.00052 S/m; the electrical conductivity (w1 = 0.0315) came out at 0.0318 ± 0.00064 S/m; the electrical conductivity (w1 = 0.0419) stood at 0.0346 ± 0.00069 S/m; the electrical conductivity (w1 = 0.0523) stood at 0.0373 ± 0.00075 S/m.

The values above are taken from the NIST ThermoML archive (doi:10.1021/acs.jced.6b00862).
